Reference: patent US6495376B1, “Methods and compositions for regulating protein-protein interactions” (Beth Israel Deaconess Medical Center, priority 1999, dated 2002)
Where “and” joins values, the source holds several entries; their conditions need not be identical. Equal entries are not always repeated. Entries after “also recorded” stand apart in the source; their conditions may differ. Where two headings read alike, the source gives them in different places.

Columns and labels:
[1] = test system: MPM-2 antigens (mitotic phosphoproteins) of mitotic HeLa cell extracts; assay: GST pulldown from mitotic HeLa cell extracts, MPM-2 immunoblotting (phosphoprotein-binding activity); details: for Phosphoprotein binding activity: GST-fusion proteins with mitotic extracts, MPM2 antibody; for binding to mitotic phosphoproteins / MPM-2 antigens (in words): mitotic HeLa cell extracts; for effect of phosphorylation by PKA on interaction with MPM2 antigens: protein phosphorylated by PKA before binding
Protocol: GST-fusion proteins containing the WW-domain, PPIase-domain or the entire Pin 1 protein were prepared and incubated with interphase (G1/S arrested; Control) or dividing (M phase) HeLa cell extracts using well-known procedures (Lu, K. P., et al., Nature 380:544 (1996); (Shen, M., et al., Genes & Devl. 12:706 (1998)). Briefly, HeLa cells were arrested at the G1/S boundary or mitosis by incubation with thymidine and aphidicolin or nocodazole for 16 h, respectively. The cells were lysed and supernatants incubated with 10 μl of agarose beads containing GST-Pin1; GST-WW-domain of Pin1; GST-PPIase domain of Pin1; or control GST for 2 h at 4° C. The phosphorylated precipitated proteins were washed 5 times in buffer containing 1% Triton X-100 before subjecting to immunoblotting analysis using MPM-2 antibody, as described previously (Yaffe, M. B. et al., Science 278:1957 (1997); Schukowski, et al., Biochemistry 37:5566 (1998); Shen, M. et al., Genes & Dev 12:706 (1998)). MPM-2 recognizes a subset of mitotic phosphoproteins including Pin1-binding proteins such as cdc25.
(§1) Pintide and its nonphosphorylated counterpart were synthesized and incubated with GST-Pin1 or the GST-WW-domain of Pin1 in a binding buffer, using established procedures (Shen, M. et al., Genes & Dev 12:706 (1998)). After a 1 hr incubation, mitotic HeLa cell extracts were added and subjected to GST pull down experiments, followed by immunoblotting analysis using the MPM-2 antibody. To obtain semi-quantitative data, films of immunoblots were scanned at the region of 55 kDa, the major Pin1-binding protein, and data analyzed using ImageQuan (ScanJet II CX). The peptide binding constants were measured using a fluorescence polarization assay (Jiskoot, W. et al., Anal Biochem 196:421 (1991)). Peptides were fluorescein labeled at the N-terminus using the Fluorescein Amine Labeling Kit (Pan Vera Corp.) and purified by TLC according to the manufacturer's […]. To prevent nonspecific labeling, a Pintide analogue (WFYpSPFLE) SEQ ID NO: 8 and the nonphosphorylated control were used. Various concentrations of Pin1 and its mutant proteins were incubated with 0.1 μM of the labeled peptides in a binding buffer containing 50 mM HEPES, pH 7.4, 100 mM NaCl, 2% glycerol. Fluorescence polarization values were obtained using a Pan Vera Beacon 2000 system, as described by the manufacturer.
To examine the effect of Pin1 phosphorylation on Pin1 binding to ligands, Pin1 and Pin1 mutant proteins were incubated with the catalytic subunit of PKA and PKC (a mixture of α, β and γ, UBI) in a kinase reaction buffer containing 500 μM cold ATP at 30° C. for 15 min (Lu, K. P. et al., Anal. Biochem. 196:421 (1991)). The reactions were stopped by adding SDS sample buffer and reaction products separated on SDS-gels, followed by autoradiography. Pin1 proteins were isolated and used to bind MPM-2 antigens from mitotic extracts from HeLa cells, as previously described (Shen, M., et al., Genes & Dev 12:706 (1998)). Experiments were also performed with PKA and PKC, casein kinase, cyclin B/Cdc2 and SRPK1 kinases.

[2] = test system: mitotically phosphorylated Cdc25C; assay: GST pull down of phosphorylated Cdc25C and CIP dephosphorylation; assay type: binding; details: for protection of bound Cdc25C from dephosphorylation by CIP: Cdc25C precipitated on GST beads, then CIP; for binding to Cdc25C (in words): mitotic versus interphase phosphorylated form
From the text: To confirm that Nedd4 WW-domains bind a specific phosphoprotein in a phosphorylation-dependent manner interactions between Nedd4 WW-domains and Cdc25C were examined. To various degrees, all three Nedd4 WW-domains bound the mitotically phosphorylated form, but not the interphase phosphorylated form of both HeLa Cdc25C and in vitro synthesized Xenopus Cdc25C. […] The Kd values for the phosphopeptides were also lower than those for the Pro-rich peptide that was thought to be a Nedd4 WW-domain-binding site (Table 1) (Chen, H. I., et al., Proc. Natl. Acad. Sci. USA 92:7819 (1995); Staub, O., et al., EMBO J. 15:2371 (1996); Bedford, M. J., et al., EMBO J., 16:2376 (1997)).
Interactions between the WW-domain of Pin1 and specific phosphorylated ligands were examined. To detect phosphorylation-dependent interaction, Cdc25C, Plk1 and Pin1 ligands, were synthesized by in vitro transcription and translation in the presence of ^35S-Met and incubated with Xenopus interphase or mitotic extracts or mitotic extracts followed by treatment with calf intestine phosphatase (M+CIP). Protein complexes were separated on SDS-gels either directly (input) or first subjected to GST pull down with the N-terminal WW-domain (amino acids 1-54) or C-terminal PPIase domain (amino acids 47-163) or the entire Pin1 protein (Shen, M. et al., Genes & Dev 12:706 (1998)). The labeled protein-GST bead complexes were washed extensively and bound proteins analyzed by SDS-PAGE and autoradiography using standard techniques.
To determine whether WW-domain binding protects dephosphorylation of its targets ^35S labeled (His)6 epitope tagged Cdc25C was phosphorylated by mitotic extracts and precipitated by GST fusion protein beads or Ni-NTA beads. The isolated Cdc25C was then incubated with control buffer or CIP, followed by separation on SDS-containing gels and autoradiography.

WFYSPFLE = assay: Fluorescence anisotropy binding to fluorescein-labeled nonphosphorylated control peptide; details: for WFYSPFLE Kd: nonphosphorylated peptide
WFYpSPFLE (Pintide) = assay: Fluorescence anisotropy (polarization) binding to fluorescein-labeled phosphorylated Pintide analogue; details: for binding to Pintide (in words): fluorescence anisotropy
From the text: To determine the affinity of Pin1, and its WW or PPIase domain for phosphopeptides, peptides were labeled with fluorescein and their interactions with Pin1 measured using quantitative fluorescence anisotrophy. To prevent nonspecific labeling, a Pintide analogue (WFYpSPFLE) SEQ ID NO: 9 was used, which binds Pin1 with a high affinity based on the peptide library screen as described by (Lu, K. P. et al., U.S. Ser. No. 60/058,164 (1997), the teachings of which are incorporated herein in their entirety.
as §1

[3] = high affinity binding site, read-out: WFYpSPFLE Kd(μM) High affinity

What does the source list for “Pin1 WW-domain: N-terminal WW-domain (amino acids 1-54) of Pin1 (MADEEKLPPGWEKRMSRSSGRVYYFNHITNASQWERPSGNSSSGGKNGQGEPAR; left off: a dimerising Fc or GST)”?
Phosphoprotein binding activity [1]: + (binding was detected); binding to mitotic phosphoproteins / MPM-2 antigens (in words) [1]: strong binding; effect of phosphorylation by PKA on interaction with MPM2 antigens [1]: completely abolished; protection of bound Cdc25C from dephosphorylation by CIP [2]: CIP failed to dephosphorylate Cdc25C; binding to Cdc25C (in words) [2]: bound the phosphorylated Cdc25C in mitotic cell extracts, but not interphase extracts; Kd (μM) Pintide nonphosphorylated WFYSPFLE (WFYSPFLE; GST-WW-domains, N.B., not binding detected): N.B.; WFYSPFLE Kd (WFYSPFLE): No binding was detected; also recorded: Not binding; Kd (WFYpSPFLE (Pintide); GST-WW-domains, fluorescein-labeled peptide, average of three independent experiments, read-out: Kd (μM) Pintide WFYpSPFLE): 1 µM; binding to Pintide (in words) (WFYpSPFLE (Pintide)): bound Pintide; Kd (WFYpSPFLE (Pintide); [3]): 1.2 µM and 1 µM

What does the source list for “Pin1: wild-type human prolyl isomerase (PPIase) Pin1 with N-terminal WW-domain; tag cleaved in Table 2”?
Phosphoprotein binding activity [1]: + (binding was detected); binding to mitotic phosphoproteins / MPM-2 antigens (in words) [1]: strong binding; effect of phosphorylation by PKA on interaction with MPM2 antigens [1]: completely abolished; protection of bound Cdc25C from dephosphorylation by CIP [2]: CIP failed to dephosphorylate Cdc25C; binding to Cdc25C (in words) [2]: bound the phosphorylated Cdc25C in mitotic cell extracts, but not interphase extracts; WFYSPFLE Kd (WFYSPFLE): No binding was detected; also recorded: Not binding; binding to Pintide (in words) (WFYpSPFLE (Pintide)): bound Pintide; Kd (WFYpSPFLE (Pintide); [3]): 1.2 µM; Kd (WFYpSPFLE (Pintide); low affinity binding site, read-out: WFYpSPFLE Kd(μM) Low affinity): 11 µM
